# From patent publication US12157746B2, “Tetrahydro-1H-pyrazino[2,1-a]isoindolylquinoline compounds for the treatment of autoimmune disease” (F. HOFFMANN-LA ROCHE AG, priority 2018, dated 2024)
# Molecular target: T1, human TLR8 (Homo sapiens, UniProt Q9NR97)
# T1 sequence (Q9NR97 27-1041): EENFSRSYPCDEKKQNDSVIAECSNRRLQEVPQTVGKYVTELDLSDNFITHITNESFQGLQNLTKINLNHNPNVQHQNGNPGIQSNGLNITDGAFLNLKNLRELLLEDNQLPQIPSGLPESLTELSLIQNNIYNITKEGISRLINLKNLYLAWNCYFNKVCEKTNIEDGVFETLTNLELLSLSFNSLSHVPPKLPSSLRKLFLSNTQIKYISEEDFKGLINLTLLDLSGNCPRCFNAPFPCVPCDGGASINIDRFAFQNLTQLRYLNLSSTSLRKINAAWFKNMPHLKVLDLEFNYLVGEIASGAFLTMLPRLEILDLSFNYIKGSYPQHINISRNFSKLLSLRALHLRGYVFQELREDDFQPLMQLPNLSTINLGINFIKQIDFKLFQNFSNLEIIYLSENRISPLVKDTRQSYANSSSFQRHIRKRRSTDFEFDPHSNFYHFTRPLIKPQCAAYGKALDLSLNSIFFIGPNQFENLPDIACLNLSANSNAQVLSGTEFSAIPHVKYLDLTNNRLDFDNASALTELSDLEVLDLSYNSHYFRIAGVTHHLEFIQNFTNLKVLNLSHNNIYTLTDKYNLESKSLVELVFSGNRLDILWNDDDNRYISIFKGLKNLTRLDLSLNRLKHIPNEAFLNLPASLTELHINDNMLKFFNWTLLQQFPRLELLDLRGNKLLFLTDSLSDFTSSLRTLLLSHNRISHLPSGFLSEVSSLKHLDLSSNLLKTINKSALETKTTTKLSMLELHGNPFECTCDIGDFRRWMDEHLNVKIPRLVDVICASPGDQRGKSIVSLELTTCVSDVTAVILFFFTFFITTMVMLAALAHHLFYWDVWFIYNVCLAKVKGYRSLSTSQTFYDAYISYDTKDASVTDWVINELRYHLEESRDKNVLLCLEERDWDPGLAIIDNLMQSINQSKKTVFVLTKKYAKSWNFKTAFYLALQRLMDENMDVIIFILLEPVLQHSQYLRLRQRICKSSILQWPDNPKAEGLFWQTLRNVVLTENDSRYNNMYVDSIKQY
# Assay: HEK293-Blue-hTLR-8 cells assay
# Format: cell-based
# Details: HEK293-Blue-hTLR8 cells, R848 stimulation, 20 hrs, SEAP reporter; read-out: HEK/hTLR8 IC50
# Method in brief: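 Antagonism read out in HEK293-Blue-hTLR8 cells carrying an NF-κB/AP-1-driven SEAP reporter, stimulated with R848 (10 μL of 60 uM stock added) alongside serially diluted compound (1% DMSO), 20 h at 37° C. Supernatant SEAP measured with QUANTI-Blue after 2 h at 37° C, absorbance at 620-655 nm.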
row,IC50 [nM],Compound
1,< 3.2,"C[C@@H]1CN(c2ccc(C#N)c3ncccc23)C[C@@H]2c3ccc(N4CCNCC4)cc3CN12 [Example 1, 5-[(4R,10bS)-4-methyl-8-piperazin-1-yl-3,4,6,10b-tetrahydro-1H-pyrazino[2,1-a]isoindol-2-yl]quinoline-8-carbonitrile]"
2,< 3.2,"C[C@H]1CN(c2ccc(C#N)c3ncccc23)C[C@H]2c3ccc(N4CCNCC4)cc3CN12 [Example 2, 5-[(4S,10bR)-4-methyl-8-piperazin-1-yl-3,4,6,10b-tetrahydro-1H-pyrazino[2,1-a]isoindol-2-yl]quinoline-8-carbonitrile]"
3,< 3.2,"N#Cc1ccc(N2CCN3Cc4cc(N5CCNCC5)ccc4C3C2)c2cccnc12 (centres unmarked) [Example 3, 5-(8-piperazin-1-yl-3,4,6,10b-tetrahydro-1H-pyrazino[2,1-a]isoindol-2-yl)quinoline-8-carbonitrile]"
4,< 3.2,"C[C@@H]1CN(c2ccc(C#N)c3ncccc23)C[C@@H]2c3ccc(N[C@@H]4CNCCOC4)cc3CN12 [Example 56A, 5-[(4R,10bS)-4-methyl-8-[[(6R)-1,4-oxazepan-6-yl]amino]-3,4,6,10b-tetrahydro-1H-pyrazino[2,1-a]isoindol-2-yl]quinoline-8-carbonitrile]"
5,< 3.2,"C[C@@H]1CN(c2ccc(C#N)c3ncccc23)C[C@@H]2c3ccc(N[C@H]4CNCCOC4)cc3CN12 [Example 56B, 5-[(4R,10bS)-4-methyl-8-[[(6S)-1,4-oxazepan-6-yl]amino]-3,4,6,10b-tetrahydro-1H-pyrazino[2,1-a]isoindol-2-yl]quinoline-8-carbonitrile]"
6,< 3.2,"C[C@@H]1CN(c2ccc(C#N)c3ncccc23)C[C@@H]2c3ccc(NCC4COCCN4)cc3CN12 (stereo partly drawn) [Example 57, 5-[(4R,10bS)-4-methyl-8-(morpholin-3-ylmethylamino)-3,4,6,10b-tetrahydro-1H-pyrazino[2,1-a]isoindol-2-yl]quinoline-8-carbonitrile]"
7,< 3.2,"C[C@@H]1CN(c2ccc(C#N)c3ncccc23)C[C@@H]2c3ccc(NC[C@@H]4CNCCO4)cc3CN12 [Example 58, 5-[(4R,10bS)-4-methyl-8-[[(2S)-morpholin-2-yl]methylamino]-3,4,6,10b-tetrahydro-1H-pyrazino[2,1-a]isoindol-2-yl]quinoline-8-carbonitrile]"
8,< 3.2,"C[C@@H]1CN(c2ccc(C#N)c3ncccc23)C[C@@H]2c3ccc(NC[C@H]4CNCCO4)cc3CN12 [Example 59, 5-[(4R,10bS)-4-methyl-8-[[(2R)-morpholin-2-yl]methylamino]-3,4,6,10b-tetrahydro-1H-pyrazino[2,1-a]isoindol-2-yl]quinoline-8-carbonitrile]"
9,< 3.2,"CO[C@@H]1CNC[C@@H]1Nc1ccc2c(c1)CN1[C@H](C)CN(c3ccc(C#N)c4ncccc34)C[C@H]21 [Example 60, 5-[(4R,10bS)-8-[[(3S,4R)-4-methoxypyrrolidin-3-yl]amino]-4-methyl-3,4,6,10b-tetrahydro-1H-pyrazino[2,1-a]isoindol-2-yl]quinoline-8-carbonitrile]"
10,< 3.2,"CO[C@H]1CNC[C@H]1Nc1ccc2c(c1)CN1[C@H](C)CN(c3ccc(C#N)c4ncccc34)C[C@H]21 [Example 61, 5-[(4R,10bS)-8-[[(3R,4S)-4-methoxypyrrolidin-3-yl]amino]-4-methyl-3,4,6,10b-tetrahydro-1H-pyrazino[2,1-a]isoindol-2-yl]quinoline-8-carbonitrile]"
11,< 3.2,"CO[C@H]1CNC[C@@H]1Nc1ccc2c(c1)CN1[C@H](C)CN(c3ccc(C#N)c4ncccc34)C[C@H]21 [Example 62, 5-[(4R,10bS)-8-[[(3S,4S)-4-methoxypyrrolidin-3-yl]amino]-4-methyl-3,4,6,10b-tetrahydro-1H-pyrazino[2,1-a]isoindol-2-yl]quinoline-8-carbonitrile]"
12,6.2,"CO[C@@H]1CNC[C@H]1Nc1cc2c(cc1C)[C@H]1CN(c3ccc(C#N)c4ncccc34)C[C@@H](C)N1C2 [Example 63, 5-[(4R,10bS)-8-[[(3R,4R)-4-methoxypyrrolidin-3-yl]amino]-4,9-dimethyl-3,4,6,10b-tetrahydro-1H-pyrazino[2,1-a]isoindol-2-yl]quinoline-8-carbonitrile]"
13,< 3.2,"CO[C@H]1CNC[C@@H]1N(C)c1ccc2c(c1)CN1[C@H](C)CN(c3ccc(C#N)c4ncccc34)C[C@H]21 [Example 64, 5-[(4R,10bS)-8-[[(3S,4S)-4-methoxypyrrolidin-3-yl]-methyl-amino]-4-methyl-3,4,6,10b-tetrahydro-1H-pyrazino[2,1-a]isoindol-2-yl]quinoline-8-carbonitrile]"
14,< 3.2,"C[C@@H]1CN(c2ccc(C#N)c3ncccc23)C[C@@H]2c3ccc(N[C@@H]4CCCNC4)cc3CN12 [Example 65, 5-[(4R,10bS)-4-methyl-8-[[(3R)-3-piperidyl]amino]-3,4,6,10b-tetrahydro-1H-pyrazino[2,1-a]isoindol-2-yl]quinoline-8-carbonitrile]"
15,< 3.2,"CO[C@H]1CNCC[C@H]1Nc1ccc2c(c1)CN1[C@H](C)CN(c3ccc(C#N)c4ncccc34)C[C@H]21 [Example 66, 5-[(4R,10bS)-8-[[(3S,4R)-3-methoxy-4-piperidyl]amino]-4-methyl-3,4,6,10b-tetrahydro-1H-pyrazino[2,1-a]isoindol-2-yl]quinoline-8-carbonitrile]"
16,< 3.2,"C[C@@H]1CN(c2ccc(C#N)c3ncccc23)C[C@@H]2c3ccc(NCCN4CC[C@H](O)C4)cc3CN12 [Example 68, 5-[(4R,10bS)-8-[2-[(3S)-3-hydroxypyrrolidin-1-yl]ethylamino]-4-methyl-3,4,6,10b-tetrahydro-1H-pyrazino[2,1-a]isoindol-2-yl]quinoline-8-carbonitrile]"
17,< 3.2,"C[C@@H]1CN(c2ccc(C#N)c3ncccc23)C[C@@H]2c3ccc(NCC4(F)CNC4)cc3CN12 [Example 69, 5-[(4R,10bS)-8-[(3-fluoroazetidin-3-yl)methylamino]-4-methyl-3,4,6,10b-tetrahydro-1H-pyrazino[2,1-a]isoindol-2-yl]quinoline-8-carbonitrile]"
18,0.5,"C[C@@H]1CN(c2ccc(C#N)c3ncccc23)C[C@@H]2c3ccc(NC[C@@H]4C[C@H](F)CN4)cc3CN12 [Example 70, 5-[(4R,10bS)-8-[[(2S,4S)-4-fluoropyrrolidin-2-yl]methylamino]-4-methyl-3,4,6,10b-tetrahydro-1H-pyrazino[2,1-a]isoindol-2-yl]quinoline-8-carbonitrile]"
19,< 3.2,"C[C@@H]1CN(c2ccc(C#N)c3ncccc23)C[C@@H]2c3ccc(N4C[C@@H]5CNCCN5C4=O)cc3CN12 [Example 71, 5-[(4R,10bS)-8-[(8aS)-3-oxo-1,5,6,7,8,8a-hexahydroimidazo[1,5-a]pyrazin-2-yl]-4-methyl-3,4,6,10b-tetrahydro-1H-pyrazino[2,1-a]isoindol-2-yl]quinoline-8-carbonitrile]"
20,< 3.2,"C[C@@H]1CN(c2ccc(C#N)c3ncccc23)C[C@@H]2c3ccc(N4C[C@H]5CNCCN5C4=O)cc3CN12 [Example 72, 5-[(4R,10bS)-8-[(8aR)-3-oxo-1,5,6,7,8,8a-hexahydroimidazo[1,5-a]pyrazin-2-yl]-4-methyl-3,4,6,10b-tetrahydro-1H-pyrazino[2,1-a]isoindol-2-yl]quinoline-8-carbonitrile]"
21,< 0.3,"C[C@@H]1CN(c2ccc(C#N)c3ncccc23)C[C@@H]2c3ccc(OC[C@@H]4C[C@H](F)CN4)cc3CN12 [Example 74, 5-[(4R,10bS)-8-[[(2S,4S)-4-fluoropyrrolidin-2-yl]methoxy]-4-methyl-3,4,6,10b-tetrahydro-1H-pyrazino[2,1-a]isoindol-2-yl]quinoline-8-carbonitrile]"
22,12.4,"Cc1ccc(N2C[C@@H](C)N3Cc4cc(N[C@H]5CNC[C@H]5F)ccc4[C@H]3C2)c2cccnc12 [Example 75, (4R,10bS)—N-[(3S,4R)-4-fluoropyrrolidin-3-yl]-4-methyl-2-(8-methyl-5-quinolyl)-3,4,6,10b-tetrahydro-1H-pyrazino[2,1-a]isoindol-8-amine]"
23,12.7,"Cc1ccc(N2C[C@@H](C)N3Cc4cc(N[C@H]5CNC[C@H]5F)ccc4[C@H]3C2)c2nccnc12 [Example 76, (4R,10bS)—N-[(3S,4R)-4-fluoropyrrolidin-3-yl]-4-methyl-2-(8-methylquinoxalin-5-yl)-3,4,6,10b-tetrahydro-1H-pyrazino[2,1-a]isoindol-8-amine]"
